Read-outs that look alike come from different tables or passages of the source.
How the values were obtained:
[1] = system: NO production in mouse macrophage; assay: NO production inhibitory activity in LPS-stimulated mouse macrophage (Griess reaction); type: cell-based; conditions: concentration of 50 μM; LPS 1 μg/mL; mean ± SD
Method: The bioassay for NO production inhibitory activity was conducted as described by Xia. The mouse macrophage was seeded in 96-well plates. In each well, lipopolysaccharide (LPS) (1 μg/mL) was added after treating it with or without the tested compound for 24 h. The NO production in the supernatant was detected by the Griess reaction. The absorbance at 540 nm was measured with a microplate reader. The NO concentration and the inhibitory rate were calculated through a calibration curve. Dexamethasone was used as the positive control. Experiments were operated in triplicate, and the data were described as the mean ± SD of three independent experiments.

HEp-2 cells = system: HEp-2 cells; design: method as in earlier work; conditions: read-out: IC50 cytotoxicity against HEp-2; cited from earlier work
HepG2 cells = system: HepG2 cells; design: method as in earlier work; conditions: read-out: IC50 cytotoxicity against HepG2; cited from earlier work
[2] = target: protein tyrosine phosphatase 1B (PTP1B); conditions: read-out: IC50 against PTP1B, cited from earlier work
α-amylase = target: T1, α-amylase (Sus scrofa, UniProt P00690); assay: α-amylase inhibition activity (starch substrate, dinitrosalicylic acid reagent); type: biochemical; conditions: read-out: IC50 against α-amylase
T1 sequence (P00690 16-511): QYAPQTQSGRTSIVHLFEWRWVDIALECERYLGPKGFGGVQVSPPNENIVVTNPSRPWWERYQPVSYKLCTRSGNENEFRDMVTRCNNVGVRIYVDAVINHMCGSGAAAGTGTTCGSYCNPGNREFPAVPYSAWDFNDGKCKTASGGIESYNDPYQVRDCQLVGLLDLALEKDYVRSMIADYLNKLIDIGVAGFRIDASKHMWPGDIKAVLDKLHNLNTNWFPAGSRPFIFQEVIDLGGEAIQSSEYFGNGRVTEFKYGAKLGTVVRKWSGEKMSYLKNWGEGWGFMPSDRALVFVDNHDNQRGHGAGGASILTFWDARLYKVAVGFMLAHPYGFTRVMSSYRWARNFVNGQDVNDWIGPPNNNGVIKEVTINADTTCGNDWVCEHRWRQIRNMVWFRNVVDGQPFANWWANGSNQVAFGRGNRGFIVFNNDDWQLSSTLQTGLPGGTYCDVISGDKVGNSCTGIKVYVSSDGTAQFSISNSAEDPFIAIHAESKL
Method: The α-amylase inhibition activity was measured by Milella with minor modifications. Tested compounds and 1-Deoxynojirimycin (1-DNJ) were dissolved in methanol at different concentrations. A substrate solution was prepared with 0.25% starch dissolved in 20 mM phosphate buffer solution (PBS). The enzyme (10 units/mL of α-amylase in PBS, 25 µL) and sample solutions (25 µL) were mixed in Eppendorf vials, and the mixtures were incubated at 37 °C for 10 min. Then, 25 µL of substrate solution was added to each tube, and the reaction mixture was incubated at 37 °C for 10 min. The reaction was terminated by adding 150 µL of dinitrosalicylic acid color reagent. Subsequently, the test tubes were heated for 5 min at 100 °C. After cooling at room temperature, the absorbance was measured at 540 nm. The absorbance of the blank (enzyme solution was added during the boiling) and negative controls (methanol) were recorded. Analyses were performed in triplicate, and the final sample absorbance was obtained by subtracting its corresponding blank reading. The inhibitory activity (%) was calculated as follows: % inhibition=(1−A540 sample/A540 negative control) × 100%
The half-maximal inhibitory concentration (IC50) values were calculated according to the inhibition curve and the data were shown in the layout of mean ± SEM by GraphPad Prism 6.0 (GraphPad Software, Inc., La Jolla, CA, USA).

| Compound | NO production inhibition ratio (%) [1] | also measured |
| --- | --- | --- |
| COc1cc(C(C)=O)ccc1O[C@@H]1O[C@H](CO)[C@@H](OC)[C@H](O)[C@H]1O [Compound 4, Lecaniside D] | 68.10 ± 2.07% | – |
| CCCCC(OC1OC(CO)C(OC)C(O)C1O)c1cc(OC)cc(=O)o1 [Compound 2, 7(R)-(4′-methoxy-β-D-glucosyl)-4-methoxy-6-pentyl-2-pyrone] | 62.30 ± 1.46% | – |
| C[C@@H]1C[C@H]2[C@@H]3CCC4=CC(=O)C=C[C@]4(C)[C@@]3(F)[C@@H](O)C[C@]2(C)[C@@]1(O)C(=O)CO [Dexamethasone, reference compound] | 63.88 ± 2.07% | – |
| COc1c(O[C@@H]2O[C@H](CO[C@@H]3OC[C@H](O)[C@H](O)[C@H]3O)[C@@H](O)[C@H](O)[C@H]2O)cc(OC)c2c(=O)c3ccccc3oc12 [3-O-(6-O-α-L-arabinopyranosyl)-β-D-gluco-pyranosyl-1,4-dimethoxyxanthone] | – | IC50 (HEp-2 cells): 9 µM; IC50 (HepG2 cells): 16 µM |
| CCCCC(OC1OC(CO)C(OC)C(O)C1O)c1cc(OC)cc(=O)o1 [Compound 3, 7(S)-(4′-methoxy-β-D-glucosyl)-4-methoxy-6-pentyl-2-pyrone] | 68.44 ± 3.75% | – |
| CCCCCCCCCCCCCCCc1cc(O[C@@H]2O[C@H](CO)[C@@H](O)[C@H](O)[C@H]2O)cc(O)c1C(=O)Oc1cc(C)c(C(=O)O)c(O)c1 [Aquastatin A] | – | IC50 ([2]; competitive manner): 0.19 µM |
| 4-(4′-methoxy-β-D-glucosyl)-6-pentyl-2-pyrone [Compound 1] | 53.85 ± 2.32% | IC50 (α-amylase): 128 µM |
| Lecaniside C | – | IC50 [2]: > 50 µM |

Source: publication PMC9863027, “Bioactive Alpha-Pyrone and Phenolic Glucosides from the Marine-Derived Metarhizium sp. P2100” (Journal of Fungi, 2022)
